Results from ChEMBL document CHEMBL4265900, “Discovery of the bifunctional modulator of angiotensin II type 1 receptor (AT1R) and PPARγ derived from the AT1R antagonist, Fimasartan” (Bioorg Med Chem Lett, 2018).
Activity calls are given as the source filed them. No cut-off for these calls is given here.

How the values were obtained:
[1] = AUClast in rat at 10 mg/kg, po; assay type: ADME, organism-based; design: dose 10 mg/kg, route oral, time 0 - last; conditions: in vivo
[2] = AUClast in mouse at 20 mg/kg, po; assay type: ADME, organism-based; design: dose 20 mg/kg, route oral, time 0 - last; conditions: in vivo
[3] = Tmax in rat at 10 mg/kg, po; assay type: ADME, organism-based; conditions: in vivo
[4] = Half life in rat at 10 mg/kg, po; assay type: ADME, organism-based; conditions: in vivo
[5] = molecular target: T1, Peroxisome proliferator-activated receptor gamma (Homo sapiens) (UniProt P37231); assay: Agonist activity at PPARgamma (unknown origin) at 1 uM relative to telmisartan
T1 sequence (whole entry): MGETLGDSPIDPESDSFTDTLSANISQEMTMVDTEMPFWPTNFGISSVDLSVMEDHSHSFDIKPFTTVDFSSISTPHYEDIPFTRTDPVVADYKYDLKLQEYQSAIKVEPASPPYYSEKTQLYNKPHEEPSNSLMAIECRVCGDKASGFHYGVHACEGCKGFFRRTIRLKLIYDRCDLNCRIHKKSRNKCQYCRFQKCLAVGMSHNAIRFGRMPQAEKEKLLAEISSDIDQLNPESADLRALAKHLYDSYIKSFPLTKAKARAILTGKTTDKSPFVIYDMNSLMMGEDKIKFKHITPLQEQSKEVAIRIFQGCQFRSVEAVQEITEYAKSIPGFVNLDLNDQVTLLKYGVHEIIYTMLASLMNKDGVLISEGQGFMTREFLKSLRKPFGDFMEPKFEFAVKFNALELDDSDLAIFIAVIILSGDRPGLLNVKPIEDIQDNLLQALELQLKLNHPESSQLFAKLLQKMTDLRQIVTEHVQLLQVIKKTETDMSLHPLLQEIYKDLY

[6] = tested on: Rattus norvegicus; assay: Antihypertensive activity in angiotensin 2 induced hypertension rat model assessed as time required for 50% reduction in blood pressure at 3 mg/kg, po; assay type: functional
[7] = molecular target: T2, Type-1 angiotensin II receptor (Homo sapiens, UniProt P30556); assay: Antagonist activity at type-1 angiotensin 2 receptor (unknown origin) by calcium mobilizing assay; assay type: functional
T2 sequence (P30556 whole entry): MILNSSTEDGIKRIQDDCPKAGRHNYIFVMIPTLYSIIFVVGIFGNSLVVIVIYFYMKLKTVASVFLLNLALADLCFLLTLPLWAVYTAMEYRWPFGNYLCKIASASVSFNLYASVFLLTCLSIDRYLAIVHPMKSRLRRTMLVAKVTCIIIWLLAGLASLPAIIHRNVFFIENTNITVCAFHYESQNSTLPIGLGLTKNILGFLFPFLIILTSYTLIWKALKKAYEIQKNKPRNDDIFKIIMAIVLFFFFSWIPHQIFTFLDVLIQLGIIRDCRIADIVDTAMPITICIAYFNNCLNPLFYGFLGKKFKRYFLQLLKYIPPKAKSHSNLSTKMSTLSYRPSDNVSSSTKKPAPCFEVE

[8] = Cmax in mouse at 20 mg/kg, po; assay type: ADME, organism-based; design: dose 20 mg/kg, route oral; conditions: in vivo
[9] = tested on: Rattus norvegicus; assay: Antihypertensive activity in angiotensin 2 induced hypertension rat model at 3 mg/kg, po measured until 8 hrs post dose; assay type: functional, organism-based
[10] = Cmax in rat at 10 mg/kg, po; assay type: ADME, organism-based; design: dose 10 mg/kg, route oral; conditions: in vivo
[11] = molecular target: T3, Type-1 angiotensin II receptor (Homo sapiens) (UniProt P30556); assay: Antagonist activity at type-1 angiotensin 2 receptor (unknown origin) at 20 nM by calcium mobilizing assay relative to fimasartan; assay type: functional
T3 sequence (whole entry): T2 sequence (P30556 whole entry)

| Activity [5] | IC50 [7] | inhibition [11] | SMILES | other results |
| --- | --- | --- | --- | --- |
| 0% | 4.5 nM |  | CCCCc1nc(C)c(CC(=S)N(C)C)c(=O)n1Cc1ccc(-c2ccccc2-c2nnn[nH]2)cc1 [FIMASARTAN] | AUC(0-t) [1]: 1930 ng·h/mL; AUC(0-t) [2]: 254 ng·h/mL; Tmax [3]: 7.8 min; half-life [4]: 3.6 h; Time [6]: 22 h; Cmax [8]: 145 ng/mL; Activity [9]: Active; Cmax [10]: 518 ng/mL |
| 100% | 4.7 nM |  | CCCc1nc(C)c(CC(=S)N(C)C)c(=O)n1Cc1ccc(-c2ccccc2-c2noc(=O)[nH]2)cc1 |  |
|  |  | 11% | CCCCc1nc(C)c(CC(=S)N(C)C)c(=O)n1Cc1ccc(-c2ccccc2S(N)(=O)=O)cc1 |  |
| 122% | 2.1 nM |  | CCCCc1nc(C)c(CC(=S)N(C)CC(C)C)c(=O)n1Cc1ccc(-c2ccccc2-c2noc(=O)[nH]2)cc1 |  |
| 106% |  | 107% | CCCCc1nc(C)c(CC(=S)N(C)C(C)C)c(=O)n1Cc1ccc(-c2ccccc2-c2noc(=O)[nH]2)cc1 |  |

More lines, now with the values behind:

| SMILES | Activity [5] | IC50 [7] | inhibition [11] | other results |
| --- | --- | --- | --- | --- |
| CCCCc1nc(C)c(CC(=S)N(CC)CC)c(=O)n1Cc1ccc(-c2ccccc2-c2noc(=O)[nH]2)cc1 | 61% | 2 nM |  |  |
| CCCCc1nc(C)c(CC(=S)N2CCCC2)c(=O)n1Cc1ccc(-c2ccccc2-c2noc(=O)[nH]2)cc1 | 105% | 0.7 nM |  |  |
| CCCCc1nc(C)c(CC(=S)N2Cc3ccccc3C2)c(=O)n1Cc1ccc(-c2ccccc2-c2noc(=O)[nH]2)cc1 | 100% | 32 nM |  |  |
| Cc1nc(C2CC2)n(Cc2ccc(-c3ccccc3-c3noc(=O)[nH]3)cc2)c(=O)c1CC(=S)N(C)C |  |  | 9.5% |  |
| CCCCc1nc(C)c(CC(=S)N2CCOCC2)c(=O)n1Cc1ccc(-c2ccccc2-c2noc(=O)[nH]2)cc1 | 83% | 5.6 nM |  |  |
